Entries after “also recorded” stand apart in the source; their conditions may differ.
Legend:
C2C12 myoblasts [1] = test: Clock and Wnt pathway gene/protein expression in C2C12 myoblasts during myogenic differentiation; format: cell-based, mouse
Experimental: (§1) Total protein (20-30 μg) was extracted using standard IP Lysis buffer (3% NaCl, 5% Tris-HCl, 10% Glycerol, 0.5% Triton X-10 in Sterile MilliQ water) and resolved on 10% SDS-Page gels followed by western blotting on Immun-Blot PVDF Membranes for Protein Blotting (Bio-rad). Antibodies used were diluted in 5% milk (Labscientific CN: M0841). Membranes were washed with TBS-T [10% TBS, 0.1% Tween™ 20 (Fisher BioReagents CN: BP377-500)]. Images were developed using Luminol solution 1:1 SuperSignal West Pico PLUS Stable Peroxide Solution (Thermo Scientific CN: 1863095) and SuperSignal West Pico PLUS Luminol Enhancer Solution (Thermo Scientific CN: 1863094) on chemiluminescence imager (GE Healthcare Bio-Sciences AB Amersham Imager 680).
(§2) Cells extracted with TRIzol™ Reagent (Ambion CN: 15596018) were collected. RNA extraction was performed with Chloroform (Fisher Chemical CN: C298-500) and Isopropanol (Fisher Chemical CN: A451SK-4) extraction followed by two purification steps with 75% Ethanol (Fisherbrand CN: HC-800-1GAL) and elution in Sterile MilliQ water.
(§3) The RNA concentration was measured using Nanodrop spectrophotometer (Thermo Fisher). Following RNA extraction, retro transcription was performed using RevertAid RT Reverse Transcription Kit (Thermo Fisher CN: K1691) and run on SimpliAmp Thermal Cycler (Thermo Fisher CN: A24811) according to the kit procedure. Quantitative PCR was performed using PowerUp™ SYBR™ Green Master Mix (Thermo Fisher CN: A25742) using a dilution of 5:2:1 master mix, RNA and H2Omq according to the protocol on ViiA 7 Real-Time PCR System (Applied Biosystems). Relative expression levels were determined using the comparative Ct method to normalize target genes to 36B4 internal controls.
Pictures were taken every day to monitor morphological progression, and proteins and RNA samples were collected on days indicated.

U2OS cells = test: Clock gene and protein expression in U2OS cells (immunoblot, RT-qPCR); format: cell-based; conditions: 24 h
Experimental: as §1, §2, §3

[2] = system: C3H10T1/2 cells containing Per2::dLuc luciferase reporter; test: Bioluminescence monitoring of Per2::dLuc reporter in C3H10T1/2 cells; format: cell-based; conditions: 10T1/2 cells
Experimental: Generation of stable adipogenic progenitor cell lines containing Per2::dLuc. 3T3-L1 preadipocytes and the C3H10T1/2 mesenchymal stem cells obtained from ATCC were used for Per2:: dLuc lentiviral transduction and stable clone selection using puromycin, as described previously (Guo et al., 2012). Briefly, cells were transfected with lentiviral packaging plasmids (pSPAX.2 and pMD2.G) and lentivirus vectors Per2::dLuc using PEI Max (Polysciences). At 48 hours post-transfection, lentiviruses were collected. 3T3-L1 and C3H10T1/2 […] cells were infected using collected lentiviral media supplemented with polybrene. 24 hours following lentiviral infection, stable cell lines were selected in the presence of 2 μg/ml puromycin.
Continuous Bioluminescence monitoring of Per2:: dLuc luciferase reporter. 3T3-L1 and C3H10T1/2 cells containing a Per2::dLuc luciferase reporter were generated as described previously (Xiong et al., 2023). […] Raw and subtracted results of real-time bioluminescence recording data for 6 days were exported, and data was calculated as luminescence counts per second, as previously described (Xiong, Li, Nam et al., 2022). […] Briefly, raw data following the first cycle from day 2 to […] were fitted to a linear baseline, and the baseline-subtracted data (polynomial number=1) were fitted to a sine wave, from which period length and goodness of fit and damping constant were determined.

C2C12 myoblasts [3] = test: Wound healing assay of C2C12 myoblasts; format: cell-based, mouse; conditions: 8 and 24 hours; 0.2 to 1 μM; vs DMSO
Experimental: Cells were seeded at 12×10^5 concentration on 6 well plates until 90% coverage and treated with compounds as indicated and controls while maintained 10% FBS 1% PSG DMEM. Scratch wounds were made with disposable cells scrapers and pictures were taken at hours 0, 4, 8, 24 and 48 following scratch. The results were measured as percentage coverage over original wound area based on image quantification. Area of wound closure was measured using Image J software.

mdx mice [4] = test: Maximal lethal dose by daily intraperitoneal injection in mdx mice; format: in vivo
Experimental: (§4) FIGS. 48A-48C. Systemic delivery of CM002 by intraperitoneal injection improves muscle strength in dystrophic mdx mice. Based on the PK analysis, we determined the maximal lethal dose in mdx mice via daily intraperitoneal injections using escalating doses. Starting doses were tested at 10, 20 and 30 mg/Kg/day, for 3 consecutive days in male or female mdx mice (FIG. 48A).

[5] = In vivo pharmacokinetics after intravenous tail vein injection; parameters: species or system mouse; conditions: 1 mg/kg intravenous
Experimental: FIGS. 47A-47C. In vivo PK study of CM002 by intravenous administration in C57/BL6 mice. We next performed pharmacokinetic analysis of CM002 in normal wild-type C57/BL6 mice to guide in vivo studies. Following intravenous delivery of CM002 via tail vein injection at 1 mg/kg of body weight in three mice of 12 weeks of age, we monitored its plasma concentrations at 6 hours (FIG. 47A) and 24 hours (FIG. 47B). […] Quantitative analysis of key pharmacokinetic parameters is shown in FIG. 47C, based on 1 mg/kg/day intravenous administration.

mdx mice [6] = format: in vivo; conditions: 10 mg/kg IP daily, 3 doses; vs non-treated or DMSO
Experimental: as §4

[7] = system: primary myoblasts derived from patients with Duchene Muscular Dystrophy; test: Myogenic induction in human DMD primary myoblasts (immunoblot); format: cell-based; conditions: 3 days of differentiation
Text: FIGS. 40A-40B. Chlorhexidine and CM002 promote myogenic induction in human DMD primary myoblasts. Using primary myoblasts derived from patients with Duchene Muscular Dystrophy, we determined the effect of Chlorhexidine and CM002 on promoting myogenic induction.

In the case of `[H]/N=C(\N/C(=N/[H])NCCCCCCNC(=N)NC(=N)Nc1ccc(Cl)cc1)Nc1ccc(Cl)cc1` [CHX, chlorhexidine], the “CLOCK and Bmal1 protein levels with targets Rev-erbα and Cry2” value (C2C12 myoblasts [1]; 0.5 uM, through 6 days of differentiation) is reported as “robustly stimulated”, the “induction of Wnt10a, Fzd5 and β-catenin in Bmal1-deficient myoblasts” value (C2C12 myoblasts [1]; BMKD myoblasts) is reported as “completely abolished in Bmal1-deficient myoblasts; also recorded: abolished in Bmal1-deficient cells” and the “induction of Clock, Bmal1, Rev-erbα and Per2 in Bmal1 shRNA (BMKD) cells” value (C2C12 myoblasts [1]; day 4 of myogenic differentiation, vs scrambled control) is reported as “completely abolished in the BMKD cells”. The “Wnt10a, Fzd5 and β-catenin expression” value (C2C12 myoblasts [1]; scrambled control (SC) myoblasts, RT-qPCR) was “significantly induced by CHX at 0.5 μM with tendency toward induction at 0.2 μM”, the “CLOCK and Bmal1 transcripts” value (U2OS cells; RT-qPCR) was “markedly up-regulated” and the “Dbp, Nr1d1, Nr1d2 and Cry2 transcripts” value (U2OS cells; RT-qPCR) was “stimulated”. For the same compound, the Bmal1 protein expression (U2OS cells; immunoblot) was “elevated Bmal1 expression at 0.2 and 0.5 μM”, the CLOCK protein levels (U2OS cells; immunoblot) was “sufficient to induce CLOCK protein levels” and the “Rev-erbα (Nr1d1) and Period 2 (Per 2) protein” value (U2OS cells; immunoblot) was “induced by CHX in a largely dose-dependent manner”. The clock period length [2] was “dose-dependent clock period shortening, with this effect significant only for 1 and 2 μM”, the clock cycling amplitude ([2]; 1 and 2 μM) was “augment clock cycling amplitude” and the “wound area closure (migration)” value (C2C12 myoblasts [3]) was “significantly increased”.
For `CCCCCC/C=N/C(=N)NC(=N)Nc1ccc(Cl)cc1` [CM002], the “lethality at 20 mg/kg” value (mdx mice [4]; IP injection) was “young adult mice at 14 weeks of age were succumbed to death, while older mice over 6 months of age survived”, the “lethality at 30 mg/kg” value (mdx mice [4]; IP injection) was “most mice injected at 30 mg/kg deceased” and the lethal dose (mdx mice [4]; intraperitoneal, 3 consecutive days) was “over 20 mg/kg/day”. For the same compound, the “tolerability at 10 mg/kg” value (mdx mice [4]; male mice of 10-14 weeks, IP) was “tolerated 10 mg/kg well without any lethality”, the “plasma level at half-life” value [5] was roughly 100 ng/mL and the “time of tissue re-distribution” value [5] was no more than 30 min. For the same compound, the “time to being largely cleared” value [5] was no more than 24 h, the maximal plasma concentration ([5]; C57/BL6 mice) was roughly 1.47 mg/L and the half-life ([5]; mouse, plasma, C57/BL6 mice) was 6.76 ± 1.33 h. The “increase of grip strength” value (mdx mice [6]) was roughly 16%, the “MyoD and Myogenin protein (myogenic factors)” value [7] was “Robust inductions of MyoD and Myogenin protein” and the Bmal1 protein expression ([7]; 0.2 and 0.5 μM) was “significantly elevated protein expression of Bmal1”.

Reference: patent publication US20250100962A1 (CITY OF HOPE, priority 2023, published 2025)
